Columns and labels:
Experiment in all cases: relative viability (nuclei count vs DMSO), 5 days (fraction); higher = more cells survive
[1] = test system: CAL-12T
Procedure, shortened: (§1)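 Relative viability divides the nuclei count in treated wells by that in vehicle wells. Lung cancer cell lines were seeded in 1536-well plates, dosed by pin tool the next day, and fixed and stained after 5 days in one step with final 0.05% Triton X-100, 1% formaldehyde and 1 ug/ml Hoechst. Dosing was a single drug or a fixed anchor-drug dose plus five library-drug doses (not always all listed) in √10 steps, and values are medians of duplicate plates imaged at 4×.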

[2] = test system: COR-L 105
Procedure, shortened: as §1

[3] = test system: H3255
Procedure, shortened: as §1

[4] = test system: HARA
Procedure, shortened: as §1

[5] = test system: HCC-15
Procedure, shortened: as §1

[6] = test system: HCC-366
Procedure, shortened: as §1

[7] = test system: LC-2-ad
Procedure, shortened: as §1

[8] = test system: LU99A
Procedure, shortened: as §1

[9] = test system: NCI-H1395
Procedure, shortened: as §1

[10] = test system: NCI-H1666
Procedure, shortened: as §1

[11] = test system: NCI-H1734
Procedure, shortened: as §1

[12] = test system: NCI-H1944
Procedure, shortened: as §1

[13] = test system: NCI-H1975
Procedure, shortened: as §1

[14] = test system: NCI-H1993
Procedure, shortened: as §1

[15] = test system: NCI-H2228
Procedure, shortened: as §1

[16] = test system: NCI-H3122
Procedure, shortened: as §1

[17] = test system: NCI-H520
Procedure, shortened: as §1

[18] = test system: NCI-H647
Procedure, shortened: as §1

[19] = test system: NCI-H661
Procedure, shortened: as §1

[20] = test system: NCI-H838
Procedure, shortened: as §1

[21] = test system: PC-14
Procedure, shortened: as §1

[22] = test system: PC-3 [JPC-3]
Procedure, shortened: as §1

[23] = test system: SK-LU-1
Procedure, shortened: as §1

`O=C(O)CCCCC(CCSCc1ccccc1)SCc1ccccc1` (centres undefined) [CPI-613] + O=C(CCCCCCC(=O)Nc1ccccc1)NO [Vorinostat] (partner 1 µM) was tested, and the relative viability ([1]; first compound 5 µM) was 0.674, the relative viability ([1]; first compound 15.81 µM) was 0.545 and the relative viability ([1]; first compound 50 µM) was 0.708. For the same compound, the relative viability ([1]; first compound 158.11 µM) was 0.0538, the relative viability ([1]; first compound 500 µM) was 0.039 and the relative viability ([2]; first compound 5 µM) was 0.765. The relative viability ([2]; first compound 15.81 µM) was 0.675, the relative viability ([2]; first compound 50 µM) was 1.04 and the relative viability ([2]; first compound 158.11 µM) was 0.375. It also gave a relative viability ([2]; first compound 500 µM) of 0.261, a relative viability ([3]; first compound 5 µM) of 0.765 and a relative viability ([3]; first compound 15.81 µM) of 0.796. It also gave a relative viability ([3]; first compound 50 µM) of 0.639, a relative viability ([3]; first compound 158.11 µM) of 0.821 and a relative viability ([3]; first compound 500 µM) of 0.716. It also gave a relative viability ([4]; first compound 5 µM) of 0.479, a relative viability ([4]; first compound 15.81 µM) of 0.529 and a relative viability ([4]; first compound 50 µM) of 0.506. For the same compound, the relative viability ([4]; first compound 158.11 µM) was 0.0931, the relative viability ([4]; first compound 500 µM) was 0.024 and the relative viability ([5]; first compound 5 µM) was 0.801. For the same compound, the relative viability ([5]; first compound 15.81 µM) was 0.774, the relative viability ([5]; first compound 50 µM) was 0.779 and the relative viability ([5]; first compound 158.11 µM) was 0.181. It also gave a relative viability ([5]; first compound 500 µM) of 0.0657, a relative viability ([6]; first compound 5 µM) of 0.371 and a relative viability ([6]; first compound 15.81 µM) of 0.314. For the same compound, the relative viability ([6]; first compound 50 µM) was 0.291, the relative viability ([6]; first compound 158.11 µM) was 0.0721 and the relative viability ([6]; first compound 500 µM) was 0.0058. It also gave a relative viability ([7]; first compound 5 µM) of 0.624, a relative viability ([7]; first compound 15.81 µM) of 0.631 and a relative viability ([7]; first compound 50 µM) of 0.594. For the same compound, the relative viability ([7]; first compound 158.11 µM) was 0.0484, the relative viability ([7]; first compound 500 µM) was 0.0025 and the relative viability ([8]; first compound 5 µM) was 0.474. It also gave a relative viability ([8]; first compound 15.81 µM) of 0.408, a relative viability ([8]; first compound 50 µM) of 0.466 and a relative viability ([8]; first compound 158.11 µM) of 0.394. For the same compound, the relative viability ([8]; first compound 500 µM) was 0.223, the relative viability ([9]; first compound 5 µM) was 0.792 and the relative viability ([9]; first compound 15.81 µM) was 0.613. The relative viability ([9]; first compound 50 µM) was 0.871, the relative viability ([9]; first compound 158.11 µM) was 0.653 and the relative viability ([9]; first compound 500 µM) was 0.745. It also gave a relative viability ([10]; first compound 5 µM) of 1.07, a relative viability ([10]; first compound 15.81 µM) of 1.01 and a relative viability ([10]; first compound 50 µM) of 1.01. For the same compound, the relative viability ([10]; first compound 158.11 µM) was 0.542, the relative viability ([10]; first compound 500 µM) was 0.417 and the relative viability ([11]; first compound 5 µM) was 0.66. For the same compound, the relative viability ([11]; first compound 15.81 µM) was 0.768, the relative viability ([11]; first compound 50 µM) was 0.704 and the relative viability ([11]; first compound 158.11 µM) was 0.147. For the same compound, the relative viability ([11]; first compound 500 µM) was 0.107, the relative viability ([12]; first compound 5 µM) was 0.572 and the relative viability ([12]; first compound 15.81 µM) was 0.574. The relative viability ([12]; first compound 50 µM) was 0.496, the relative viability ([12]; first compound 158.11 µM) was 0.322 and the relative viability ([12]; first compound 500 µM) was 0.273. It also gave a relative viability ([13]; first compound 5 µM) of 0.73, a relative viability ([13]; first compound 15.81 µM) of 0.735 and a relative viability ([13]; first compound 50 µM) of 0.692. The relative viability ([13]; first compound 158.11 µM) was 0.24, the relative viability ([13]; first compound 500 µM) was 0.0367 and the relative viability ([14]; first compound 5 µM) was 0.569. The relative viability ([14]; first compound 15.81 µM) was 0.495, the relative viability ([14]; first compound 50 µM) was 0.61 and the relative viability ([14]; first compound 158.11 µM) was 0.404. For the same compound, the relative viability ([14]; first compound 500 µM) was 0.227, the relative viability ([15]; first compound 5 µM) was 0.776 and the relative viability ([15]; first compound 15.81 µM) was 0.402. For the same compound, the relative viability ([15]; first compound 50 µM) was 0.559, the relative viability ([15]; first compound 158.11 µM) was 0.229 and the relative viability ([15]; first compound 500 µM) was 0.0377. The relative viability ([16]; first compound 5 µM) was 0.795, the relative viability ([16]; first compound 15.81 µM) was 0.89 and the relative viability ([16]; first compound 50 µM) was 0.961. The relative viability ([16]; first compound 158.11 µM) was 0.728, the relative viability ([16]; first compound 500 µM) was 0.805 and the relative viability ([17]; first compound 5 µM) was 0.831. For the same compound, the relative viability ([17]; first compound 15.81 µM) was 0.693, the relative viability ([17]; first compound 50 µM) was 0.657 and the relative viability ([17]; first compound 158.11 µM) was 0.325. It also gave a relative viability ([17]; first compound 500 µM) of 0.11, a relative viability ([18]; first compound 5 µM) of 0.598 and a relative viability ([18]; first compound 15.81 µM) of 0.568. The relative viability ([18]; first compound 50 µM) was 0.303, the relative viability ([18]; first compound 158.11 µM) was 0.0385 and the relative viability ([18]; first compound 500 µM) was 0.014. The relative viability ([19]; first compound 5 µM) was 0.702, the relative viability ([19]; first compound 15.81 µM) was 0.702 and the relative viability ([19]; first compound 50 µM) was 0.802. It also gave a relative viability ([19]; first compound 158.11 µM) of 0.423, a relative viability ([19]; first compound 500 µM) of 0.147 and a relative viability ([20]; first compound 5 µM) of 0.675. The relative viability ([20]; first compound 15.81 µM) was 0.625, the relative viability ([20]; first compound 50 µM) was 0.797 and the relative viability ([20]; first compound 158.11 µM) was 0.3. For the same compound, the relative viability ([20]; first compound 500 µM) was 0.107, the relative viability ([21]; first compound 5 µM) was 0.732 and the relative viability ([21]; first compound 15.81 µM) was 0.612. For the same compound, the relative viability ([21]; first compound 50 µM) was 0.611, the relative viability ([21]; first compound 158.11 µM) was 0.0514 and the relative viability ([21]; first compound 500 µM) was 0.0074. It also gave a relative viability ([22]; first compound 5 µM) of 0.83, a relative viability ([22]; first compound 50 µM) of 0.738 and a relative viability ([22]; first compound 158.11 µM) of 0.623. It also gave a relative viability ([22]; first compound 500 µM) of 0.389, a relative viability ([23]; first compound 5 µM) of 0.773 and a relative viability ([23]; first compound 15.81 µM) of 0.65. It also gave a relative viability ([23]; first compound 50 µM) of 0.648, a relative viability ([23]; first compound 158.11 µM) of 0.206 and a relative viability ([23]; first compound 500 µM) of 0.11.

Reference: the supplement of paper PMC10307832
